Experimental data from US20210038559A1, “CANNABINOIDS AND DERIVATIVES FOR PROMOTING IMMUNOGENICITY OF TUMOR AND INFECTED CELLS” (priority 2018, published 2021).
Read-outs that look alike come from different tables or passages of the source.

System: MHC-I expression by COLO 205 cells
Experiment: cells
Type: cell-based, human
Conditions: for fold induction at 35 µM: Homo sapiens, COLO 205, 48 h, read-out: Induction Fold
Procedure: A panel of synthetic cannabinoids (Cayman Chemical, #9002891) was tested for MHC class I-inducing capability in COLO 205 cells as described above. COLO 205 cells were treated with the compounds at a concentration of 35 μM and evaluated for cell surface MHC class I expression after 48 hours. Cells were harvested, stained with MHC-I mAb W6/32 (Thermo Fisher). MHC-I expression was determined by flow cytometry.

[1] = MHC-I expression, COLO 205 cells, compounds at 35 μM, 48 hours, flow cytometry (W6/32)

Row | Structure (SMILES) | fold induction at 35 µM [1] | also measured
1 | C#CCCCCCCCCCNC(=O)Oc1cccc(-c2cccc(C(N)=O)c2)c1 [Example 182, 3′-carbamoyl-biphenyl-3-yl-undecynecarbamate] |  | Induction Fold: 1.93 Fold
2 | CCCCCn1nc(C(=O)N[C@H](C(=O)OC)C(C)C)c2ccccc21 [Example 183, N-[(1-pentyl-1H-indazol-3-yl)carbonyl]-1-valine, methyl ester] |  | Induction Fold [1]: 1.91 Fold
3 | O=C(Nc1cccc2ccccc12)c1nn(CCCCCF)c2ccccc12 [Example 184, 1-(5-fluoropentyl)-N-1-naphthalenyl-1H-indazole-3-carboxamide] | 1.9 | 
4 | CC1(C)C(C(=O)c2nn(CCCCCF)c3ccccc23)C1(C)C [Example 185, (1-(5-fluoropentyl)-1H-indazol-3-yl)(2,2,3,3-tetramethylcyclopropyl)methanone] | 1.9 | 
5 | CC(C)(C)C(NC(=O)c1cn(Cc2ccccc2)c2ccccc12)C(N)=O (stereo not drawn) [Example 186, N-(1-amino-3,3-dimethyl-1-oxobutan-2-yl)-1-benzyl-1H-indole-3-carboxamide] | 1.9 | 
6 | CCCC(C)n1cc(C(=O)c2cccc3ccccc23)c2ccccc21 (stereo not drawn) [Example 187, naphthalen-1-yl(1-(pentan-2-yl)-1H-indol-3-yl)methanone] | 1.9 | 
7 | CCCC(C)(C)c1ccc2c(c1)OC(C)(C)[C@@H]1CC=C(C)C[C@@H]21 [Example 188, 3-(1,1-dimethylbutyl)-6aR,7,10,10aR-tetrahydro-6,6,9-trimethyl-6H-dibenzo[b,d]pyran] |  | Induction Fold [1]: 1.90 Fold
8 | Cc1ccc(C(=O)c2cn(CCCCCCl)c3ccccc23)c2ccccc12 [Example 189, (1-(5-chloropentyl)-1H-indol-3-yl)(4-methylnaphthalen-1-yl)methanone] | 1.89 | 
9 | CCCCCn1cc(C(=O)Cc2ccccc2Cl)c2ccccc21 [Example 190, 2-(2-chlorophenyl)-1-(1-pentyl-1H-indol-3-yl)-ethanone] | 1.89 | 
10 | CCCCCn1cc(C(=O)c2cccc3c(C)cccc23)c2ccccc21 [Example 191, (5-methylnaphthalen-1-yl)(1-pentyl-1H-indol-3-yl)methanone] | 1.89 | 
11 | CCCCCc1cc(OC)c2cc(Cc3ccccc3OC)c(=O)oc2c1 [Example 200, 5-methoxy-3-[(2-methoxyphenyl)methyl]-7-pentyl-2H-1-benzopyran-2-one] | 1.88 | 
12 | CCC(CC)n1cc(C(=O)c2ccc3ccccc3c2)c2ccccc21 [Example 201, [1-(1-ethylpropyl)-1H-indol-3-yl]-2-naphthalenyl-methanone] | 1.87 | 
13 | CCCCCCn1cccc1C(=O)c1cccc2ccccc12 [Example 202, (1-hexyl-1H-pyrrol-2-yl)-1-naphthalenyl-methanone] |  | Induction Fold: 1.87 Fold
14 | Cc1ccc(C(=O)c2cn(CCN3CCOCC3)c3ccccc23)c2ccccc12 [Example 203, (4-methyl-1-naphthalenyl)[1-[2-(4-morpholinyl)ethyl]-1H-indol-3-yl]-methanone] | 1.87 | 
15 | O=C(Oc1cccc2cccnc12)c1cn(Cc2ccc(F)cc2)c2ccccc12 [Example 204, 1-[(4-fluorophenyl)methyl]-1H-indole-3-carboxylic acid, 8-quinolinyl ester] | 1.87 | 
16 | CCCCCn1cc(C(=O)c2ccc(Br)c3ccccc23)c2ccccc21 [Example 205, (4-bromo-1-naphthalenyl)(1-pentyl-1H-indol-3-yl)-methanone] | 1.86 | 
17 | O=C(Oc1cccc2ncccc12)c1cn(CC2CCCCC2)c2ccccc12 [Example 206, quinolin-5-yl 1-(cyclohexylmethyl)-1H-indole-3-carboxylate] | 1.86 | 

Row | Structure (SMILES) | fold induction at 35 µM [1] | also measured
18 | CCCCC(F)Cn1cc(C(=O)c2cccc3ccccc23)c2ccccc21 (stereo not drawn) [Example 207, (1-(2-fluorohexyl)-1H-indol-3-yl)(naphthalen-1-yl)methanone] | 1.85 | 
19 | O=C(Nc1cccc2cccnc12)c1cn(CCCCCF)c2ccccc12 [Example 208, 1-(5-fluoropentyl)-N-(quinolin-8-yl)-1H-indole-3-carboxamide] | 1.84 | 
20 | CCC(F)CCn1nc(C(=O)N[C@H](C(=O)OC)C(C)C)c2ccccc21 (stereo partly drawn) [Example 210, methyl (1-(3-fluoropentyl)-1H-indazole-3-carbonyl)-1-valinate] |  | Induction Fold: 1.84 Fold
21 | CCCCCn1cc(C(=O)c2ccc(C)c3ccccc23)c2ccccc21 [Example 211, (4-methyl-1-naphthalenyl)(1-pentyl-1H-indol-3-yl)-methanone] | 1.83 | 
22 | NC(=O)[C@H](Cc1ccccc1)NC(=O)c1nn(Cc2ccc(F)cc2)c2ccccc12 [Example 213, N-[(1S)-2-amino-2-oxo-1-(phenylmethyl)ethyl]-1-[(4-fluorophenyl)methyl]-1H-indazole-3-carboxamide] | 1.81 | 
23 | O=C(c1cn(CCCCCF)c2ccccc12)N1CCCC1 [Example 215, (1-(5-fluoropentyl)-1H-indol-3-yl)(pyrrolidin-1-yl)methanone] | 1.8 | 
24 | CCc1ccc(C(=O)c2cn(CCCCCF)c3ccccc23)c2ccccc12 [Example 216, (4-ethyl-1-naphthalenyl)[1-(5-fluoropentyl)-1H-indol-3-yl]-methanone] | 1.79 | 
25 | CC(C)(C)C(NC(=O)c1nn(Cc2ccccc2)c2ccccc12)C(N)=O (stereo not drawn) [Example 217, N-(1-amino-3,3-dimethyl-1-oxobutan-2-yl)-1-benzyl-1H-indazole-3-carboxamide] | 1.79 | 
26 | O=C(Oc1ccc2cnccc2c1)c1cn(CCCCCF)c2ccccc12 [Example 218, isoquinolin-6-yl 1-(5-fluoropentyl)-1H-indole-3-carboxylate] | 1.78 | 
27 | CCCCCn1cc(C(=O)c2cc(C)cc3ccccc23)c2ccccc21 [Example 219, (3-methylnaphthalen-1-y1)(1-pentyl-1H-indol-3-yl)methanone] |  | Induction Fold: 1.78 Fold
28 | O=C(c1cccc2ccccc12)c1cn(Cc2ccc(F)cc2)c2ccccc12 [Example 220, (1-(4-fluorobenzyl)-1H-indol-3-yl)(naphthalen-1-yl)methanone] | 1.77 | 
29 | CC(C)[C@H](NC(=O)c1nn(Cc2cccc(F)c2)c2ccccc12)C(N)=O [Example 221, N-[(1S)-1-(aminocarbonyl)-2-methylpropyl]-1-[(3-fluorophenyl)methyl]-1H-indazole-3-carboxamide] | 1.77 | 
30 | CC1(C)C(C(=O)c2cn(CCCCCBr)c3ccccc23)C1(C)C [Example 222, [1-(5-bromopentyl)-1H-indol-3-yl](2,2,3,3-tetramethylcyclopropyl)-methanone] | 1.76 | 
31 | CCCCCn1cc(C(=O)c2ccc(Cl)c3ccccc23)c2ccccc21 [Example 223, (4-chloro-1-naphthalenyl)(1-pentyl-1H-indol-3-yl)-methanone] | 1.76 | 
32 | CCCCCn1nc(C(=O)Nc2cccc3ccccc23)c2ccccc21 [Example 224, N-1-naphthalenyl-1-pentyl-1H-indazole-3-carboxamide] | 1.75 | 
33 | CC(C)CCCCn1cc(C(=O)C2C(C)(C)C2(C)C)c2ccccc21 [Example 225, (1-(5-methylhexyl)-1H-indol-3-yl)(2,2,3,3-tetramethylcyclopropyl)methanone] | 1.75 | 
